Assay results taken from patent US20020127717A1, “Preparation of replicating macrophages and use in diagnosis and therapy” (priority 2000, published 2002).

Tests used:
[1] = biological target: T1, Ulex Europaeus-I Agglutimin (UEA-I) (Ulex europaeus, UniProt P22972); test: FITC-UEA-I lectin binding to acetone-fixed cells, specificity control; details: 0.2M, room temperature, 30 minutes preincubation
T1 construct: purchased Vector Laboratories, Inc
T1 sequence (P22972 1-243): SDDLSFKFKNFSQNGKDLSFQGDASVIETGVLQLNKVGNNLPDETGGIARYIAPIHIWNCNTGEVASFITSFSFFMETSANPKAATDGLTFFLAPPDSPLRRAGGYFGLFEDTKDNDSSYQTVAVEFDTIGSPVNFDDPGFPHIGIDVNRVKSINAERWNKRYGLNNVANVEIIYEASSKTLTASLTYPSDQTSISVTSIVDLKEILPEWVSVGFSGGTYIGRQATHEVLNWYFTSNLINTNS
Protocol: FITC-conjugated Ulex Europaeus-I Agglutimin (UEA-I) (Vector Laboratories, Inc.) was incubated with acetone-fixed cells at 37° C. for 1 hour. The specificity of UEA-I, the lectin was determined by preincubating with 0.2M […] (Sigma), at room temperature for 30 minutes.

[2] = system: Bovine Capillary Endothelial Cells (BCE); test: DNA synthesis assay (3H-Thymidine), stimulation by growth factors, BCE; format: cell-based
Protocol: (§1) DNA Synthesis Assay: DNA synthesis was determined by culturing the cells with ^3H-Thymidine as is standard in the art. The KC isolates used in the assay were at day 21 post liver isolation. The normal endothelial cells and foreskin fibroblasts were cultured in media consisting of RPMI-1640, fetal bovine serum 20% supplemented with specific factors as described in Nakamura S and Salahuddin SZ, Science 242: 426-430,1988. KC isolates were cultured as described above. Cells were harvested between 4 hours and 18 hours culture depending on the stimulatory agent used. A stimulation index was calculated by dividing radioactivity incorporated into cells with the stimulatory agent versus cells in culture medium alone.
(§2) Cultured Cells: Human umbilical vein endothelial cells (HUV-E) were prepared as described in Nakamura et al, Science 1988. Bovine capillary endothelial cells (BCE) were a gift from Dr. Peter Biberfeld of Karolinska Institute, Stockholm, Sweden. Normal human foreskin fibroblasts (HSF) were obtained from the American Type Tissue Culture Collection (ATCC), Rockville, Md. (CRL-1635).
(§3) Various growth factors were tested for their ability to stimulate growth of the human Kupffer cell isolates (KC-3) and other cell types. KC isolates used in this experiment were grown in culture for 21 days with MCG medium.

[3] = system: Human Foreskin Fibroblast Cells (HSF); test: DNA synthesis assay (3H-Thymidine), stimulation by growth factors, HSF; format: cell-based; details: HFS
Protocol: as §1, §2, §3

[4] = system: human Kupffer cell isolates (KC-1, KC-2, KC-3); test: DNA synthesis assay (3H-Thymidine), stimulation by growth factors, Kupffer cell isolates; format: cell-based; design: key to Stimulation Index of Cultured Target cells: ratio: uptake with stimulatory agent / uptake in medium alone; details: for effect on DNA synthesis of KC isolates (in words): KC isolates grown 21 days in MCG medium, summary of Table 3
Protocol: as §1, §3

[5] = system: human Kupffer cell isolates (KC-1, KC-2, KC-3); test: as above; format: cell-based; design: key: ratio: uptake with stimulatory agent / uptake in medium alone
[6] = system: Human Umbilical Vein Endothelial Cells (HUV-E); test: DNA synthesis assay (3H-Thymidine), stimulation by growth factors, HUVE; format: cell-based
Protocol: as §1, §2, §3

Molecule	binding of UEA-I after preincubating the lectin [1]	Stimulation Index of Cultured Target cells ([2]; HC (hydrocortisone) +)	Stimulation Index of Cultured Target cells ([2]; HC (hydrocortisone) −)	Stimulation Index of Cultured Target cells ([3]; HC (hydrocortisone) +)	Stimulation Index of Cultured Target cells ([3]; HC (hydrocortisone) −)	effect on DNA synthesis of KC isolates (in words) [4]	Stimulation Index of Cultured Target cells ([4]; KC-3, HC (hydrocortisone) +)	Stimulation Index of Cultured Target cells ([4]; KC-3, HC (hydrocortisone) −)	Stimulation Index of Cultured Target cells ([5]; KC-1, HC (hydrocortisone) +)	Stimulation Index of Cultured Target cells ([5]; KC-1, HC (hydrocortisone) −)	Stimulation Index of Cultured Target cells ([5]; KC-2, HC (hydrocortisone) +)	Stimulation Index of Cultured Target cells ([5]; KC-2, HC (hydrocortisone) −)	Stimulation Index of Cultured Target cells ([6]; HC (hydrocortisone) +)	Stimulation Index of Cultured Target cells ([6]; HC (hydrocortisone) −)
O=C(CO)[C@H](O)[C@@H](O)[C@@H](O)CO [L-fructose]	No binding was observed													
BFGF: bFGF = Fibroblast Growth Factor β, Lot # 14765800, Boehringer Manheim		2.3	6.2	1.9	2.2	little to no effect	1.2	1.2	0.5	0.8	0.5	0.6	15.4	35.4
EGF: epidermal growth factor		2.9	6.8	1.1	2.8	little to no effect	0.6	1.2	0.9	1.2	0.9	1.1		25.4
PDGF		1.8	4.4	1.5	1.4	little to no effect	1.1	1.4	1.1	1.2	1.2	1.4	20.2	10.0
TNFα		1.2		0.8			1.2		0.8		0.9		1.0	
